Consider ten molecules from patent US7348351B2, “Substituted 3-alkyl and 3-arylalkyl 1H-indol-1yl acetic acid derivatives as inhibitors of plasminogen activator inhibitor-1 (PAI-1)” (Wyeth, priority 2002, dated 2008).

The target in data set [1] is T1, recombinant human plasminogen activator inhibitor-1 (Homo sapiens, UniProt P05121).
T1 construct: purchased Molecular Innovations, Royal Oak, Mich
As to the kind of experiment: Primary Screen for the PAI-1 Inhibition (residual tPA activity, chromogenic Spectrozyme-tPA). The note with it: 25 μM test compound; 140 nM PAI-1, 70 nM tPA, pH 6.6. The class given is biochemical. How it is done: Primary Screen for the PAI-1 Inhibition
Test compounds were dissolved in DMSO at a final concentration of 10 mM, then diluted 100× in physiologic buffer. The inhibitory assay was initiated by the addition of the test compound (1-100 μM final concentration, maximum DMSO concentration of 0.2%) in a pH 6.6 buffer containing 140 nM recombinant human plasminogen activator inhibitor-1 (Molecular Innovations, Royal Oak, Mich.). Following a 1 hour incubation at room temperature, 70 nM of recombinant human tissue plasminogen activator (tPA) was added, and the combination of the test compound, PAI-1 and tPA was incubated for an additional 30 minutes. Following the second incubation, Spectrozyme-tPA (American Diagnostica, Greenwich, Conn.), a chromogenic substrate for tPA, was added and absorbance read at 405 nm at 0 and 60 minutes. Relative PAI-1 inhibition is equal to the residual tPA activity in the presence of test compound and PAI-1. Control treatments included the complete inhibition of tPA by PAI-1 at the molar ratio employed (2:1), and the absence of any effect of the test compound on tPA alone.

The target in the next data set is human PAI-1 (Homo sapiens, UniProt P05121). Description: Assay for Determining IC50 of Inhibition of PAI-1 (antibody detection of active PAI-1 bound to tPA-coated plate). The note with it: human PAI-1 50 ng/ml, pH 7.5, 33B8 monoclonal antibody detection. The class given is biochemical. The method, then: Assay for Determining IC50 of Inhibition of PAI-1
This assay was based upon the non-SDS dissociable interaction between tPA and active PAI-1. Assay plates were initially coated with human tPA (10 μg/ml). The test compounds were dissolved in DMSO at 10 mM, then diluted with physiologic buffer (pH 7.5) to a final concentration of 1-50 μM. The test compounds were incubated with human PAI-1 (50 ng/ml) for 15 minutes at room temperature. The tPA-coated plate was washed with a solution of 0.05% Tween 20 and 0.1% BSA, then the plate was blocked with a solution of 3% BSA. An aliquot of the test compound/PAI-1 solution was then added to the tPA-coated plate, incubated at room temperature for 1 hour, and washed. Active PAI-1 bound to the plate was assessed by adding an aliquot of a 1:1000 dilution of the 33B8 monoclonal antibody against human PAI-1, and incubating the plate at room temperature for 1 hour (Molecular Innovations, Royal Oak, Mich.). […] The plate was incubated 45 minutes at room temperature, and color development was determined at OD405 nm. The quantitation of active PAI-1 bound to tPA at varying concentrations of the test compound was used to determine the IC50. Results are analyzed using a logarithmic best-fit equation. The assay sensitivity was 5 ng/ml of human PAI-1 as determined from a standard curve ranging from 0-100 ng/ml.

T1 sequence (P05121 24-402): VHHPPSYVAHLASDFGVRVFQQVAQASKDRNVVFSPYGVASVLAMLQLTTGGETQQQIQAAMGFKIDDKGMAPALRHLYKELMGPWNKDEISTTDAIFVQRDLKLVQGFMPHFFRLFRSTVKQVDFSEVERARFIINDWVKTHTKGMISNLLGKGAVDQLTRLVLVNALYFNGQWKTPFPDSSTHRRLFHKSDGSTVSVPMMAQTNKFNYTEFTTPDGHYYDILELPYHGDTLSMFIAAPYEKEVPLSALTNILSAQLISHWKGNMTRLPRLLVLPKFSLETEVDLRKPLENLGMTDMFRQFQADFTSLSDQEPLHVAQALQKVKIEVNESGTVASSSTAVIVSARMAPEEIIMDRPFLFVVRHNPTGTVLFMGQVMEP
Chain of human PAI-1 (P05121 24-402): as above

For orientation: inhibition means the change of the read-out against control, counted positive when it falls. As for `CC(c1cccs1)c1cn(CC(=O)O)c2ccc(-c3cccc(C(F)(F)F)c3)cc12` (centres unmarked) [Example 7, [3-(1-Thiophen-2-yl-ethyl)-5-(3-trifluoromethyl-phenyl)-indol-1-yl]acetic acid], in data set [1], the inhibition at 25 µM was determined as 47%. The same measure, in the same setting: then `CC(c1ccccc1)c1cn(CC(=O)O)c2ccc(-c3cccc(C(F)(F)F)c3)cc12` (centres unmarked) [Example 6, [3-(1-Phenyl-ethyl)-5-(3-trifluoromethyl-phenyl)-indol-1-yl]acetic acid], with 49%. For orientation: melting point means the temperature, or range, at which the solid turns liquid. `O=C(O)Cn1cc(Cc2cc(C(F)(F)F)cc(C(F)(F)F)c2)c2cc(-c3cccc(C(F)(F)F)c3)ccc21` [Example 4, {3-[3,5-bis(triflu romethyl)benzyl]-5-[3-(trifluoromethyl)phenyl]-1H-indol-1-yl}acetic acid] came in with a melting point of 175 to 176 °C. Further, the inhibition at 25 µM in data set [1] came out at 35%. `CC(C)CC(C)c1cn(CC(=O)O)c2ccc(-c3ccc(Cl)cc3Cl)cc12` (centres unmarked) [Example 10, [5-(2,4-Dichloro-phenyl)-3-(1,3-dimethyl-butyl)-indol-1-yl]-acetic acid]: in data set [1], the inhibition at 25 µM is 48%. As to `CC(c1cn(CC(=O)O)c2ccc(-c3ccc(Cl)cc3Cl)cc12)C1CCCCC1` (centres unmarked) [Example 12, [3-(1-Cyclohelxy-ethyl)-5-(2,4-dichloro-phenyl)-indol-1-yl]-acetic acid], the “% Inhibition @ 25 μM” value in data set [1] is 48%.

With `CC(c1ccccc1)c1cn(CC(=O)O)c2ccc(-c3ccc(Cl)cc3Cl)cc12` (centres unmarked) [Example 11, [5-(2,4-Dichloro-phenyl)-3-(1-phenyl-ethyl)-indol-1-yl]-acetic acid], in data set [1], the inhibition at 25 µM is 26%. Regarding `CC(C)c1ccc(Cc2cn(CC(=O)O)c3ccc(-c4cccc(C(F)(F)F)c4)cc23)cc1` [Example 9, [3-(4-Isopropyl-benzyl)-5-(3-trifluoromethyl-phenyl)-indol-1-yl]acetic acid], the inhibition at 25 µM in data set [1] was 26%. Take `O=C(O)Cn1cc(Cc2cc(C(F)(F)F)cc(C(F)(F)F)c2)c2cc(-c3ccc(Cl)cc3Cl)ccc21` [Example 3, [3-[3,5-bis(trifluoromethyl)benzyl]-5-(2,4-dichlorophenyl)-1H-indol-1-yl]acetic acid]: the melting point lay in the range of 150 to 155 °C. Also, the inhibition at 25 µM in data set [1] was determined as 100%.

For orientation: IC50 means the concentration that gives 50% inhibition. A higher IC50 goes with lower potency. The molecule `O=C(O)Cn1cc(Cc2cc(C(F)(F)F)cc(C(F)(F)F)c2)c2cc(-c3ccc(OC(F)(F)F)cc3)ccc21` [Example 2] came in with a melting point of 188 to 190 °C. The IC50 at human PAI-1 came out at 15.1 µM. Besides, the inhibition at 25 µM in data set [1] came to 31%. With `CC(c1cn(CC(=O)O)c2ccc(-c3cccc(C(F)(F)F)c3)cc12)C1CCCCC1` (centres unmarked) [Example 8, [3-(1-Cyclohexyl-ethyl)-5-(3-trifluoromethyl-phenyl)-indol-1-yl]acetic acid], the inhibition at 25 µM in data set [1] came to 64%.
